Reference: paper PMC6687188, “Novel lactate dehydrogenase inhibitors with in vivo efficacy against Cryptosporidium parvum” (PLoS Pathogens, 2019)
Like-named read-outs stand apart in the source and are kept apart here.

What was measured:
[1] = Compound cytotoxicity assay (WST-1 cell proliferation reagent); conditions: human
Experimental: A colorimetric assay using the cell proliferation reagent WST-1 (Roche, USA) for the quantification of cell viability was performed. […] When the cells were confluent, the old medium was replaced with fresh medium with or without varying concentrations of chemical compound. After 24 h of culture, 10 μl of the cell proliferation reagent WST-1, (for quantification of cell viability) was added to each well, mixed and the plates incubated for 1 h at 37 C with 5% CO2 in the dark. […] Three independent assays were performed and the dose–response curves of the means of triplicate assays were generated using GraphPad PRISM software to derive the half maximal inhibitory concentration (IC50) of compounds in HCT-8 cells.

[2] = biological target: T1, recombinant CpLDH protein (Cryptosporidium parvum, UniProt Q9GT92, F198L/K295E/R251K); conditions: cited from earlier work
[3] = biological target: T1, recombinant CpLDH protein
Experimental: The coding sequence of CpLDH was cloned from cDNA prepared from the AUCP-1 isolate of C. parvum, and the His-tagged CpLDH recombinant protein expressed in Escherichia coli, and purified in native form essentially as previously described. Briefly, cDNA was prepared from total RNA extracted from the AUCP-1 isolate of C. parvum, and the coding sequence of CpLDH (Genebank accession number AF274310.1) was PCR-amplified from the cDNA using the primer pair 5’-[…]-3’ (Forward, with the XhoI restriction site italicized and start codon in bold) and 5’-[…]-3’ (Reverse, with the BamHI site italicized and stop codon in bold). The PCR amplicon was cloned at the XhoI/BamHI site of the pET15b expression vector in-frame with the hexahistidine (His-tag) at the N-terminal and sequenced to confirm identity. The recombinant expression vector was transformed into protein expression E. coli BL21-CodonPlus-DE3-RIL (Stratagene). Transformed E. coli was cultured at 37°C in Luria broth medium (supplemented with 100 μg/ml ampicillin and 34 μg/ml chloramphenicol) to an A600 of 0.8 followed by addition of 1 mM isopropyl-β-D-thiogalactopyranoside to induce protein expression. The expression E. coli was harvested and lysed under native conditions by sonicating in lysis buffer (50 mM NaH2PO4, 300 mM NaCl, 10 mM Imidazole, pH 8.0) containing a 1x EDTA-free protease inhibitor cocktail, 600 units benzonase and 30 kU lysozyme (EMD Millipore). The lysate was clarified by centrifugation and the His-tagged recombinant protein purified under native conditions by nickel-affinity chromatography according to the manufacturer's instructions (Novagen). The wash buffer used contained 50 mM NaH2PO4, 300 mM NaCl and 20 mM Imidazole, pH 8.0, while the elution buffer was composed of 50 mM NaH2PO4, 300 mM NaCl, 250 mM Imidazole, pH 8.0. The eluate was dialyzed using a buffer containing 5 mM Hepes–KOH (pH 7.8) and 0.5 mM DTT. The purity of the recombinant protein was determined by SDS/PAGE, and the concentration measured using a Qubit 3.0 fluorometer (Life technologies). […] On the other hand, the catalytic activity of CpLDH recombinant protein for the oxidation of lactate to pyruvate was determined by measuring the change in optical density of a 100 μl reaction mixture containing 100 mM lactate, 1 mM NAD^+, 100 mM Tris, pH 9.2, with varying concentrations of CpLDH recombinant protein at 25°C. […] In all assays, reaction mixtures without recombinant CpLDH protein were included as negative controls. All assays were performed in triplicate and repeated at least thrice. The change in optical density was measured every 15 seconds for a total of 2 minutes using a Spectra Max 384 Plus plate reader (Molecular Devices) at a wave length of 340 nm.

[4] = biological target: T1, recombinant CpLDH protein; conditions: value in parentheses; ref Zhang et al., 2015 [11]; cited from earlier work
[5] = pyruvate/NADH: reduction reaction, lactate/NAD+: oxidation reaction

In the case of `Cc1cc2c(C(C)C)c(O)c(O)c(C=O)c2c(O)c1-c1c(C)cc2c(C(C)C)c(O)c(O)c(C=O)c2c1O` [NSC56817], the IC50 at 24 h [1] is reported as 64.2 µM.
For `CN(C)C(=S)SSC(=S)N(C)C` [NSC1771], the IC50 at 24 h [1] was 110 µM.
For `CCCc1c(O)c(O)c(C(=O)O)c2cc(Cc3ccccc3)c(C)cc12` [FX11], the “enzymatic activity of CpLDH (in words)” value [2] is listed as “able to inhibit”.
For `Cc1cc2c(C(C)C)c(O)c(O)c(C=O)c2c(O)c1-c1c(C)cc2c(C(C)C)c(O)c(O)c(C=O)c2c1O` [gossypol], the “enzymatic activity of CpLDH (in words)” value [2] is listed as “able to inhibit”.
Compound `CC(O)C(=O)O` (stereo not shown) [Lactate, lactate] has a Km ([3]; pyruvate/NADH: reduction reaction pH 7.5, lactate/NAD+: oxidation reaction pH 9.2, 25°C) of 39.6 mM, a Kcat [3, 5] of 0.07 s⁻¹ and a Vmax [3, 5] of 0.04 nmol⁻¹ µg⁻¹ min⁻¹. For the same compound, the Kcat [4] was 0.66 s⁻¹, the Km [4] was 10.8 mM and the Vmax [4] was 0.53 nmol⁻¹ µg⁻¹ min⁻¹.
